# Source: the Deep4Chem optical property database
# Several values for one entry are separate records, joined by “and”; a condition that tells them apart may be missing. Identical values can stand only once.
# Experiment: solvent given as SMILES
# Details: in C1CCCCC1
row,SMILES,emission maximum [nm]
1,CCc1ccc(/C=N/c2cc(C(C)C)c(O)cc2C)cc1,406
2,COC1=[N+]2C(=C(c3ccc(C)cc3)c3ccc(OC)n3[B-]2(F)F)C=C1,525
3,COC(=O)c1nc(-c2ccco2)oc1C,302
4,Cc1ccc(C2=C3C=CC(C#Cc4ccccc4)=[N+]3[B-](F)(F)n3c(Cl)ccc32)cc1,575
5,CCCN1C(=O)c2c3c(c4c(c2C1=O)CCc1cc(-c2ccc(N(C)C)cc2)c(OC)cc1-4)-c1cc(OC)c(-c2ccc(N(C)C)cc2)cc1CC3,511
6,Cc1ccc(/C=C/c2ccccc2-[n+]2cc([O-])on2)cc1,400
7,Cc1cc(C)c(B(c2c(C)cc(C)cc2C)N2c3ccccc3C(c3ccccc3)(c3ccccc3)c3ccccc32)c(C)c1,522
8,CC(C)CCCCN1CCc2c1ccc1c3c(ccc21)CCCC3=O,507
9,CCC1=C(C)C2=Cc3cccn3[B-](F)(F)[N+]2=C1C,517.5

# Same assay, conditions: in C1CCOC1
row,SMILES,emission maximum [nm]
1,CCc1ccc(/C=N/c2cc(C(C)C)c(O)cc2C)cc1,412
2,CC(C)c1cc(C(C)C)c(B2c3cc(N4c5ccccc5Oc5ccccc54)ccc3N(c3ccccc3)c3ccc(N4c5ccccc5Oc5ccccc54)cc32)c(C(C)C)c1,554.08
3,COC1=[N+]2C(=C(c3ccc(C)cc3)c3ccc(OC)n3[B-]2(F)F)C=C1,528
4,Cc1ccc(C2=C3C=CC(C#Cc4ccccc4)=[N+]3[B-](F)(F)n3c(Cl)ccc32)cc1,573
5,CCOC(=O)COc1ccc(/C=C/C2=C3c4ccccc4C(c4ccc[nH]4)=[N+]3[B-](F)(F)n3ccc(C)c32)cc1,625
6,CCCN1C(=O)c2c3c(c4c(c2C1=O)CCc1cc(-c2ccc(N(C)C)cc2)c(OC)cc1-4)-c1cc(OC)c(-c2ccc(N(C)C)cc2)cc1CC3,602
7,COc1cc2c(cc1/C=C/C(=C(C#N)C#N)c1ccccc1)c1ccccc1n2C,568
8,N#Cc1cccc2[nH]ccc12,371
9,CC1(C)CC(/C=C/c2ccc(-n3cccn3)cc2)=CC(=C(C#N)C#N)C1,529
10,c1ccc2nc(-n3c4ccccc4c4ccccc43)c(-n3c4ccccc4c4ccccc43)nc2c1,516.79
11,CCCCCCc1ccc2c3c(ccc2c1)O[B-](F)(F)[N+](c1ccc([N+]2=Cc4c(ccc5cc(CCCCCC)ccc45)O[B-]2(F)F)cc1)=C3,505
12,C=CC1CN2CCC1CC2[C@@H](OCc1ccccc1)c1ccnc2ccc(O)cc12 (stereo partly specified),358
13,C1=C(c2ccccc2)C=C(c2ccccc2)/C1=C/c1cccc(Oc2ccccc2)c1,506
14,Cc1ccc(C2=C3C=CC([Te]c4ccccc4)=[N+]3[B-](F)(F)n3c([Te]c4ccccc4)ccc32)cc1,659

# Same assay, conditions: in C1COCCO1
row,emission maximum [nm],SMILES
1,410,CCc1ccc(/C=N/c2cc(C(C)C)c(O)cc2C)cc1
2,589,CC(C)(C)NS(=O)(=O)c1ccc2c(c1)C(=O)/C(=C1\Sc3ccc(S(=O)(=O)NC(C)(C)C)cc3C1=O)S2
3,369,N#Cc1cccc2[nH]ccc12

row,SMILES,emission maximum [nm]
1,Cc1ccc(C2=C3C=CC(C#Cc4ccccc4)=[N+]3[B-](F)(F)n3c(Cl)ccc32)cc1,575
2,CC1(C)c2ccccc2N(c2ccc(-c3ccc4c(c3)c3cc(-c5ccc(N6c7ccccc7C(C)(C)c7ccccc76)cc5)ccc3c3nc(C#N)c(C#N)nc43)cc2)c2ccccc21,668.71

# Same assay, conditions: in CC#N
row,emission maximum [nm],SMILES
1,421,CCc1ccc(/C=N/c2cc(C(C)C)c(O)cc2C)cc1
2,417.83,CN(C)c1cc(-c2ccc(C#Cc3ccncc3)cc2)cc2ccccc12
3,525,Oc1ccc2ccccc2c1/C=N/c1cc2nc3ccccc3nc2cc1/N=C/c1c(O)ccc2ccccc12
4,318,COC(=O)c1nc(-c2ccco2)oc1C
5,500.89,CN(C)c1cc(-c2ccc(C#Cc3ccccc3)cc2)cc2ccccc12
6,504,Cc1ccc(/C=C/c2ccccc2-[n+]2cc([O-])on2)cc1
7,780,C[N+]1=C(/C=C/C2=C3Oc4c(cc5c6c4CCCN6CCC5)C(c4ccccc4C(=O)O)=C3CCC2)C(C)(C)c2c1ccc1ccccc21
8,380,N#Cc1cccc2[nH]ccc12
9,538,CC1(C)CC(/C=C/c2ccc(-n3cccn3)cc2)=CC(=C(C#N)C#N)C1
10,415,CCOC(=O)c1c2c3c(ccc(F)c3c3cc4ccccc4cc13)N(C)C2=O

row,SMILES,emission maximum [nm]
1,COC1=[N+]2C(=C(c3ccc(C)cc3)c3ccc(OC)n3[B-]2(F)F)C=C1,522
2,F[B-]1(F)OC(c2ccc3ccccc3c2)=CC(c2ccc3ccccc3c2)=[O+]1,510
3,CCOC(=O)COc1ccc(/C=C/C2=C3c4ccccc4C(c4ccc[nH]4)=[N+]3[B-](F)(F)n3ccc(C)c32)cc1,617
4,COc1cc2c(cc1/C=C/C(=C(C#N)C#N)c1ccccc1)c1ccccc1n2C,589
5,CC(C)CCCCN1CCc2c1ccc1c3c(ccc21)CCCC3=O,625
6,CCCCCCc1ccc2c3c(ccc2c1)O[B-](F)(F)[N+](c1ccc([N+]2=Cc4c(ccc5cc(CCCCCC)ccc45)O[B-]2(F)F)cc1)=C3,502
7,C=CC1CN2CCC1CC2[C@@H](OCc1ccccc1)c1ccnc2ccc(O)cc12 (stereo partly specified),362

# Same assay, conditions: in CC(C)(C)O
row,emission maximum [nm],SMILES
1,414,CCc1ccc(/C=N/c2cc(C(C)C)c(O)cc2C)cc1

# Same assay, conditions: in CC(C)=O
row,SMILES,emission maximum [nm]
1,CCC1=C(C)C2=Cc3cccn3[B-](F)(F)[N+]2=C1C,516

# Same assay, conditions: in CC(C)O
row,emission maximum [nm],SMILES
1,418,CCc1ccc(/C=N/c2cc(C(C)C)c(O)cc2C)cc1
2,385,N#Cc1cccc2[nH]ccc12

row,SMILES,emission maximum [nm]
1,CC(C)CCCCN1CCc2c1ccc1c3c(ccc21)CCCC3=O,637

# Same assay, conditions: in CCC(C)=O
row,SMILES,emission maximum [nm]
1,CC(C)CCCCN1CCc2c1ccc1c3c(ccc21)CCCC3=O,612

# Same assay, conditions: in CCCC#N
row,SMILES,emission maximum [nm]
1,C=CC1CN2CCC1CC2[C@@H](OCc1ccccc1)c1ccnc2ccc(O)cc12 (stereo partly specified),361

# Same assay, conditions: in CCCCCC
row,SMILES,emission maximum [nm]
1,CCc1ccc(/C=N/c2cc(C(C)C)c(O)cc2C)cc1,402
2,CCOC(=O)COc1ccc(/C=C/C2=C3c4ccccc4C(c4ccc[nH]4)=[N+]3[B-](F)(F)n3ccc(C)c32)cc1,630
3,CC1(C)c2ccccc2N(c2ccc(-c3ccc4c(c3)c3cc(-c5ccc(N6c7ccccc7C(C)(C)c7ccccc76)cc5)ccc3c3nc(C#N)c(C#N)nc43)cc2)c2ccccc21,507.36
4,c1ccc2nc(-n3c4ccccc4c4ccccc43)c(-n3c4ccccc4c4ccccc43)nc2c1,467.18

# Same assay, conditions: in CCCCO
row,emission maximum [nm],SMILES
1,420,CCc1ccc(/C=N/c2cc(C(C)C)c(O)cc2C)cc1

# Same assay, conditions: in CCO
row,emission maximum [nm],SMILES
1,422,CCc1ccc(/C=N/c2cc(C(C)C)c(O)cc2C)cc1
2,411.74,CN(C)c1cc(-c2ccc(C#Cc3ccncc3)cc2)cc2ccccc12
3,323,COC(=O)c1nc(-c2ccco2)oc1C
4,471.6,CN(C)c1cc(-c2ccc(C#Cc3ccccc3)cc2)cc2ccccc12
5,763,C[N+]1=C(/C=C/C2=C3Oc4c(cc5c6c4CCCN6CCC5)C(c4ccccc4C(=O)O)=C3CCC2)C(C)(C)c2c1ccc1ccccc21
6,387,N#Cc1cccc2[nH]ccc12
7,532,CC1(C)CC(/C=C/c2ccc(-n3cccn3)cc2)=CC(=C(C#N)C#N)C1

row,SMILES,emission maximum [nm]
1,COc1cc2c(cc1/C=C/C(=C(C#N)C#N)c1ccccc1)c1ccccc1n2C,575
2,CC(C)CCCCN1CCc2c1ccc1c3c(ccc21)CCCC3=O,539
3,CCC1=C(C)C2=Cc3cccn3[B-](F)(F)[N+]2=C1C,517

# Same assay, conditions: in CCOC(C)=O
row,SMILES,emission maximum
1,CCc1ccc(/C=N/c2cc(C(C)C)c(O)cc2C)cc1,412 nm
2,CC(C)c1cc(C(C)C)c(B2c3cc(N4c5ccccc5Oc5ccccc54)ccc3N(c3ccccc3)c3ccc(N4c5ccccc5Oc5ccccc54)cc32)c(C(C)C)c1,546.26 nm
3,COC1=[N+]2C(=C(c3ccc(C)cc3)c3ccc(OC)n3[B-]2(F)F)C=C1,526 nm
4,COC(=O)c1nc(-c2ccco2)oc1C,304 nm
5,Cc1ccc(C2=C3C=CC(C#Cc4ccccc4)=[N+]3[B-](F)(F)n3c(Cl)ccc32)cc1,571 nm
6,CCCN1C(=O)c2c3c(c4c(c2C1=O)CCc1cc(-c2ccc(N(C)C)cc2)c(OC)cc1-4)-c1cc(OC)c(-c2ccc(N(C)C)cc2)cc1CC3,598 nm
7,COc1cc2c(cc1/C=C/C(=C(C#N)C#N)c1ccccc1)c1ccccc1n2C,549 nm and 548 nm
8,CC1(C)CC(/C=C/c2ccc(-n3cccn3)cc2)=CC(=C(C#N)C#N)C1,526 nm
9,CC(C)CCCCN1CCc2c1ccc1c3c(ccc21)CCCC3=O,586 nm
